Measured values taken from patent publication US20230093861A1, “RAPAMYCIN ANALOGS AS MTOR INHIBITORS” (Revolution Medicines, Inc., priority 2017, published 2023).
Like-named read-outs stand apart in the source and are kept apart here.

How the values were obtained:
P-P70S6K (T389) = assay: Cell based AlphaLISA assay, inhibition of P-P70S6K (T389) (mTORC1 substrate phosphorylation) in MDA-MB-468 cells; conditions: Homo sapiens, 4 h, AlphaLISA, two to four hours at 37° C., read-out: pIC50 for Inhibition of mTORC1 and mTORC2 Substrate Phosphorylation, P-P70S6K-(T389) (converted)
Method in brief: (§1)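 IC50s come from control-normalized curve fits of duplicate Alpha signals. Cell lysates were probed with SureFire Ultra kits for mTORC1 substrates 4E-BP1 T37/46 and P70S6K T389 and mTORC2 substrate Akt S473 in MDA-MB-468 cells exposed to inhibitor.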

P-4E-BP1 (T37/46) = assay: Cell based AlphaLISA assay, inhibition of P-4E-BP1 (T37/46) (mTORC1 substrate phosphorylation) in MDA-MB-468 cells; conditions: Homo sapiens, AlphaLISA, two to four hours at 37° C., read-out: pIC50 for Inhibition of mTORC1 and mTORC2 Substrate Phosphorylation, P-4E-BP1-(T37/46) (converted)
Method in brief: as §1

P-Akt (S473) = assay: Cell based AlphaLISA assay, inhibition of P-Akt (S473) (mTORC2 substrate phosphorylation) in MDA-MB-468 cells; conditions: Homo sapiens, AlphaLISA, two to four hours at 37° C., read-out: pIC50 for Inhibition of mTORC1 and mTORC2 Substrate Phosphorylation, p-AKT 1/2/3 -(S473) (converted)
Method in brief: as §1

SMILES	IC50 (P-P70S6K (T389)) [nM]	IC50 (P-4E-BP1 (T37/46); MDA-MB-468, 4 h) [nM]	IC50 (P-Akt (S473); MDA-MB-468, 4 h) [nM]	IC50 (P-4E-BP1 (T37/46); 4 h) [nM]	IC50 (P-Akt (S473); 4 h) [nM]
CO[C@H]1C[C@@H]2CC[C@@H](C)[C@@](O)(O2)C(=O)C(=O)N2CCCC[C@H]2C(=O)O[C@H]([C@H](C)C[C@@H]2CC[C@H](n3cc(-c4cnc(N5CCN(c6ncc(C(=O)NCCOCCOCCOCCOCCC(=O)NCCCCn7nc(-c8ccc9oc(N)nc9c8)c8c(N)ncnc87)cn6)CC5)nc4)nn3)[C@H](OC)C2)CC(=O)[C@H](C)/C=C(\C)[C@@H](O)[C@@H](OC)C(=O)[C@H](C)C[C@H](C)/C=C/C=C/C=C/1C [Example 115]	< 1	< 3.16	< 3.16	–	–
CO[C@H]1C[C@@H]2CC[C@@H](C)[C@@](O)(O2)C(=O)C(=O)N2CCCC[C@H]2C(=O)O[C@H]([C@H](C)C[C@@H]2CC[C@@H](OCCCCc3cn(CCOCCOCCOCCOCCOCCOCCC(=O)NCCCCn4nc(-c5cc6cc(O)ccc6[nH]5)c5c(N)ncnc54)nn3)[C@H](OC)C2)CC(=O)[C@H](C)/C=C(\C)[C@@H](O)[C@@H](OC)C(=O)[C@H](C)C[C@H](C)/C=C/C=C/C=C/1C [Example 43]	< 1	–	–	31.6 to 1000	31.6 to 1000
CO[C@H]1C[C@@H]2CC[C@@H](C)[C@@](O)(O2)C(=O)C(=O)N2CCCC[C@H]2C(=O)O[C@H]([C@H](C)C[C@@H]2CC[C@@H](OCCCCc3cn(CCOCCOCCOCCOCCOCCOCCOCCOCCNC(=O)c4ccc(-c5ccc6c(N7CCOC[C@H]7C)nc(N7CCOC[C@H]7C)nc6n5)cc4)nn3)[C@H](OC)C2)CC(=O)[C@H](C)/C=C(\C)[C@@H](O)[C@@H](OC)C(=O)[C@H](C)C[C@H](C)/C=C/C=C/C=C/1C [Example 107]	< 1	< 3.16	< 3.16	–	–
CO[C@H]1C[C@@H]2CC[C@@H](C)[C@@](O)(O2)C(=O)C(=O)N2CCCC[C@H]2C(=O)O[C@H]([C@H](C)C[C@@H]2CC[C@H](n3cc(COC(=O)NCCOCCOCCOCCC(=O)NCc4cnc(N5CCN(c6ncc(C(=O)NCCCCn7nc(-c8cc9cc(O)ccc9[nH]8)c8c(N)ncnc87)cn6)CC5)nc4)nn3)[C@H](OC)C2)CC(=O)[C@H](C)/C=C(\C)[C@@H](O)[C@@H](OC)C(=O)[C@H](C)C[C@H](C)/C=C/C=C/C=C/1C [Example 184]	< 1	< 3.16	3.16 to 31.6	–	–
CO[C@H]1C[C@@H]2CC[C@@H](C)[C@@](O)(O2)C(=O)C(=O)N2CCCC[C@H]2C(=O)O[C@H]([C@H](C)C[C@@H]2CC[C@H](n3cc(CCCC(=O)NCCOCCOCCOCCC(=O)NCCOCCOCCC(=O)NCCCCn4nc(-c5ccc6oc(N)nc6c5)c5c(N)ncnc54)nn3)[C@H](OC)C2)CC(=O)[C@H](C)/C=C(\C)[C@@H](O)[C@@H](OC)C(=O)[C@H](C)C[C@H](C)/C=C/C=C/C=C/1C [Example 128]	1 to 10	3.16 to 31.6	31.6 to 1000	–	–
CO[C@H]1C[C@@H]2CC[C@@H](C)[C@@](O)(O2)C(=O)C(=O)N2CCCC[C@H]2C(=O)O[C@H]([C@H](C)C[C@@H]2CC[C@H](n3cc(COC(=O)NCCOCCOCCOCCC(=O)NCCOCCOCCC(=O)NCCCCn4nc(-c5cc6cc(O)ccc6[nH]5)c5c(N)ncnc54)nn3)[C@H](OC)C2)C[C@@H](OC)[C@H](C)/C=C(\C)[C@@H](O)[C@@H](OC)C(=O)[C@H](C)C[C@H](C)/C=C/C=C/C=C/1C [Example 144]	10 to 1000	> 1000	> 1000	–	–
CO[C@H]1C[C@@H]2CC[C@@H](C)[C@@](O)(O2)C(=O)C(=O)N2CCCC[C@H]2C(=O)O[C@H]([C@H](C)C[C@@H]2CC[C@H](n3cc(-c4cnc(N5CCN(c6ncc(C(=O)NCCOCCOCCOCCC(=O)NCCCCn7nc(-c8cc9cc(O)ccc9[nH]8)c8c(N)ncnc87)cn6)CC5)nc4)nn3)[C@H](OC)C2)CC(=O)[C@H](C)/C=C(\C)[C@@H](O)[C@@H](OC)C(=O)[C@H](C)C[C@H](C)/C=C/C=C/C=C/1C [Example 114]	< 1	> 1000	> 1000	–	–
